Assay results as given in patent US9422293B2 (priority 2006, dated 2016).
Structures can show the parent of a compound that is named as a salt. Where two headings read alike, the source gives them in different places.

What was measured:
rat TRPV1 [1] = target: T1, rat TRPV1 (Rattus norvegicus (Rat), UniProt O35433); assay: cell-based; conditions: Rat IC50 (μM)
rat TRPV1 [2] = target: T1, rat TRPV1; conditions: read-out: Rat IC50

T1 sequence (O35433 whole entry): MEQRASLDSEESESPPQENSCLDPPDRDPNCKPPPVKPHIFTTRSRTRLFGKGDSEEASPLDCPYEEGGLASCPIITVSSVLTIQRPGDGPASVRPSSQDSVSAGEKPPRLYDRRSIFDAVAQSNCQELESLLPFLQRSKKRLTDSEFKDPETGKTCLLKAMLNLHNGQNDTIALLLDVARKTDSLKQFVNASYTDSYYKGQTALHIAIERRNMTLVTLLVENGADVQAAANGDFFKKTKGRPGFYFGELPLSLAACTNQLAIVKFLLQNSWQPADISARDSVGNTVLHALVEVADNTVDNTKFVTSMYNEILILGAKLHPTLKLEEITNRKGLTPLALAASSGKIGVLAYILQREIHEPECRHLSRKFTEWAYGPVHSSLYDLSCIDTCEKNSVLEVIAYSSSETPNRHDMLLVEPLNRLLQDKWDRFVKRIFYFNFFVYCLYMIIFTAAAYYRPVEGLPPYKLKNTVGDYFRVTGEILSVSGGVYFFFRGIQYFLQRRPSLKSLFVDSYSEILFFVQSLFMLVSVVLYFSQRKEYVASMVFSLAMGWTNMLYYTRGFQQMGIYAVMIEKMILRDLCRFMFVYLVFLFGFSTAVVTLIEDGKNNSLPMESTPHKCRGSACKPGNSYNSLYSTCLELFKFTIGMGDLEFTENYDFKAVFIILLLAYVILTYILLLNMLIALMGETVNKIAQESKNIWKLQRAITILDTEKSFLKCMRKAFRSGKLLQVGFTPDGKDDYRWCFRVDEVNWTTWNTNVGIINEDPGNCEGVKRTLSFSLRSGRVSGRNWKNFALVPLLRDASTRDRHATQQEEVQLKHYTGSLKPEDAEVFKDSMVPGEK

Compound | IC50 (rat TRPV1 [1]) | IC50 (rat TRPV1 [2])
CC(C)c1nc2c(c(Nc3ccc(Br)cc3)n1)CCN(c1ncccc1C(F)(F)F)CC2 [Example 46, (4-Bromo-phenyl)-[2-isopropyl-7-(3-trifluoromethyl-pyridin-2-yl)-6,7,8,9-tetrahydro-5H-pyrimido[4,5-d]azepin-4-yl]-amine] | 0.38 µM | 
CC(C)(C)c1ccc(Nc2nc(C(C)(C)C)nc3c2CCN(c2ncccc2C(F)(F)F)CC3)cc1 [Example 138, 2-(1,1-Dimethylethyl)-N-[4-(1,1-dimethylethyl)phenyl]-7-[3-(trifluoromethyl)pyridin-2-yl]-6,7,8,9-tetrahydro-5H-pyrimido[4,5-d]azepin-4-amine] | 0.03 µM | 
Cc1nc(-c2nc3c(c(Nc4ccc(C(F)(F)F)cc4)n2)CCN(c2ncccc2C(F)(F)F)CC3)cs1 [Example 153, 2-(2-Methyl-1,3-thiazol-4-yl)-N-[4-(trifluoromethyl)phenyl]-7-[3-(trifluoromethyl)pyridin-2-yl]-6,7,8,9-tetrahydro-5H-pyrimido[4,5-d]azepin-4-amine trifluoroacetic acid salt] | 0.14 µM | 
Cc1cc(C(F)(F)F)ccc1Nc1nc(SC(C)C)nc2c1CCN(c1ncccc1C(F)(F)F)CC2 [Example 366, 2-[(1-Methylethyl)sulfanyl]-N-[2-methyl-4-(trifluoromethyl)phenyl]-7-[3-(trifluoromethyl)pyridin-2-yl]-6,7,8,9-tetrahydro-5H-pyrimido[4,5-d]azepin-4-amine] |  | 0.13 µM
Cc1cc(C(F)(F)F)ccc1Nc1nc(SCC(C)O)nc2c1CCN(c1ncccc1C(F)(F)F)CC2 (stereo not drawn) [Example 367, 1-[(4-{[2-Methyl-4-(trifluoromethyl)phenyl]amino}-7-[3-(trifluoromethyl)pyridin-2-yl]-6,7,8,9-tetrahydro-5H-pyrimido[4,5-d]azepin-2-yl)sulfanyl]propan-2-ol] |  | > 6.67 µM
Cc1cc(C(F)(F)F)ccc1Nc1nc(SC2CCOC2C)nc2c1CCN(c1ncccc1C(F)(F)F)CC2 (stereo not drawn) [Example 368, 2,5-Anhydro-1,4-dideoxy-3-S-(4-{[2-methyl-4-(trifluoromethyl)phenyl]amino}-7-[3-(trifluoromethyl)pyridin-2-yl]-6,7,8,9-tetrahydro-5H-pyrimido[4,5-d]azepin-2-yl)-3-thiopentitol] |  | 0.02 µM
Cc1cc(C(F)(F)F)ccc1Nc1nc(SC2CCOC2C)nc2c1CCN(c1ncccc1C(F)(F)F)CC2 (stereo not drawn) [Example 369, 2,5-Anhydro-1,4-dideoxy-3-S-(4-{[2-methyl-4-(trifluoromethyl)phenyl]amino}-7-[3-(trifluoromethyl)pyridin-2-yl]-6,7,8,9-tetrahydro-5H-pyrimido[4,5-d]azepin-2-yl)-3-thiopentitol] |  | 0.01 µM
CN1CCC(C)(C)c2ccc(Nc3nc(SCc4ccccc4)nc4c3CCN(c3ncccc3C(F)(F)F)CC4)cc21 [Example 370, 2-[(Phenylmethyl)sulfanyl]-7-[3-(trifluoromethyl)pyridin-2-yl]-N-(1,4,4-trimethyl-1,2,3,4-tetrahydroquinolin-7-yl)-6,7,8,9-tetrahydro-5H-pyrimido[4,5-d]azepin-4-amine] |  | 2.61 µM
CN1CCC(C)(C)c2ccc(Nc3nc(SC4CCCCC4)nc4c3CCN(c3ncccc3C(F)(F)F)CC4)cc21 [Example 371, 2-(Cyclohexylsulfanyl)-7-[3-(trifluoromethyl)pyridin-2-yl]-N-(1,4,4-trimethyl-1,2,3,4-tetrahydroquinolin-7-yl)-6,7,8,9-tetrahydro-5H-pyrimido[4,5-d]azepin-4-amine] |  | > 6.67 µM
CC(C)Sc1nc2c(c(Nc3ccc4c(c3)N(C)CCC4(C)C)n1)CCN(c1ncccc1C(F)(F)F)CC2 [Example 372, 2-[(1-Methylethyl)sulfanyl]-7-[3-(trifluoromethyl)pyridin-2-yl]-N-(1,4,4-trimethyl-1,2,3,4-tetrahydroquinolin-7-yl)-6,7,8,9-tetrahydro-5H-pyrimido[4,5-d]azepin-4-amine] |  | 0.33 µM
CC1OCCC1Sc1nc2c(c(Nc3ccc4c(c3)N(C)CCC4(C)C)n1)CCN(c1ncccc1C(F)(F)F)CC2 (stereo not drawn) [Example 374, 2,5-Anhydro-1,4-dideoxy-3-thio-3-S-{7-[3-(trifluoromethyl)pyridin-2-yl]-4-[(1,4,4-trimethyl-1,2,3,4-tetrahydroquinolin-7-yl)amino]-6,7,8,9-tetrahydro-5H-pyrimido[4,5-d]azepin-2-yl}pentitol] |  | 0.004 µM
CCCSc1nc2c(c(Nc3ccc(C(F)(F)F)cc3)n1)CCN(c1ncccc1C(F)(F)F)CC2 [Example 375, 2-(Propylsulfanyl)-N-[4-(trifluoromethyl)phenyl]-7-[3-(trifluoromethyl)pyridin-2-yl]-6,7,8,9-tetrahydro-5H-pyrimido[4,5-d]azepin-4-amine] |  | > 6.67 µM
COC(=O)C(C)(C)c1ccc(Nc2nc(N3CCOCC3)nc3c2CCN(c2ncccc2C(F)(F)F)CC3)cc1 [Example 376, 2-Methyl-2-{4-[2-morpholin-4-yl-7-(3-trifluoromethyl-pyridin-2-yl)-6,7,8,9-tetrahydro-5H-pyrimido[4,5-d]azepin-4-ylamino]-phenyl}-propionic acid methyl ester] |  | 0.11 µM
CC(C)c1nc2c(c(Nc3ccc(N4CCCC4)cc3)n1)CCN(c1ncccc1C(F)(F)F)CC2 [Example 377, 2-(1-Methylethyl)-N-(4-pyrrolidin-1-ylphenyl)-7-[3-(trifluoromethyl)pyridin-2-yl]-6,7,8,9-tetrahydro-5H-pyrimido[4,5-d]azepin-4-amine] |  | 1.41 µM
CN(C)S(=O)(=O)c1ccc(Nc2nc(N3CCOCC3)nc3c2CCN(c2ncccc2C(F)(F)F)CC3)cc1 [Example 379, N,N-Dimethyl-4-({2-morpholin-4-yl-7-[3-(trifluoromethyl)pyridin-2-yl]-6,7,8,9-tetrahydro-5H-pyrimido[4,5-d]azepin-4-yl}amino)benzenesulfonamide] |  | 0.07 µM
CC(=O)c1ccc(Nc2nc(N3CCOCC3)nc3c2CCN(c2ncccc2C(F)(F)F)CC3)cc1 [Example 380, 1-[4-({2-Morpholin-4-yl-7-[3-(trifluoromethyl)pyridin-2-yl]-6,7,8,9-tetrahydro-5H-pyrimido[4,5-d]azepin-4-yl}amino)phenyl]ethanone] |  | 0.23 µM
FC(F)(F)c1ccc(Nc2nc(N3CCOCC3)nc3c2CCN(c2ncccc2C(F)(F)F)CC3)cc1Cl [Example 381, (3-Chloro-4-trifluoromethyl-phenyl)-[2-morpholin-4-yl-7-(3-trifluoromethyl-pyridin-2-yl)-6,7,8,9-tetrahydro-5H-pyrimido[4,5-d]azepin-4-yl]-amine] |  | 0.04 µM
CC(C)(C#N)c1ccc(Nc2nc(N3CCOCC3)nc3c2CCN(c2ncccc2C(F)(F)F)CC3)cc1 [Example 382, 2-Methyl-2-{4-[2-morpholin-4-yl-7-(3-trifluoromethyl-pyridin-2-yl)-6,7,8,9-tetrahydro-5H-pyrimido[4,5-d]azepin-4-ylamino]-phenyl}-propionitrile] |  | 0.04 µM
CC(C)(CO)c1ccc(Nc2nc(N3CCCCC3)nc3c2CCN(c2ncccc2C(F)(F)F)CC3)cc1 [Example 383, 2-Methyl-2-{4-[2-piperidin-1-yl-7-(3-trifluoromethyl-pyridin-2-yl)-6,7,8,9-tetrahydro-5H-pyrimido[4,5-d]azepin-4-ylamino]-phenyl}-propan-1-ol] |  | 0.16 µM
CC(C)(C#N)c1ccc(Nc2nc(N3CCCCC3)nc3c2CCN(c2ncccc2C(F)(F)F)CC3)cc1 [Example 384, 2-Methyl-2-{4-[2-piperidin-1-yl-7-(3-trifluoromethyl-pyridin-2-yl)-6,7,8,9-tetrahydro-5H-pyrimido[4,5-d]azepin-4-ylamino]-phenyl}-propionitrile] |  | 0.04 µM
COC(=O)c1ccc(Nc2nc(N3CCCCC3)nc3c2CCN(c2ncccc2C(F)(F)F)CC3)cc1F [Example 385, 2-Fluoro-4-[2-piperidin-1-yl-7-(3-trifluoromethyl-pyridin-2-yl)-6,7,8,9-tetrahydro-5H-pyrimido[4,5-d]azepin-4-ylamino]-benzoic acid methyl ester] |  | 0.82 µM
COC(=O)c1ccc(Nc2nc(N3CCCCC3)nc3c2CCN(c2ncccc2C(F)(F)F)CC3)cc1 [Example 387, 4-[2-Piperidin-1-yl-7-(3-trifluoromethyl-pyridin-2-yl)-6,7,8,9-tetrahydro-5H-pyrimido[4,5-d]azepin-4-ylamino]-benzoic acid methyl ester] |  | 0.55 µM
CC(C)(O)c1ccc(Nc2nc(N3CCOCC3)nc3c2CCN(c2ncccc2C(F)(F)F)CC3)cc1 [Example 389, 2-{4-[2-Morpholin-4-yl-7-(3-trifluoromethyl-pyridin-2-yl)-6,7,8,9-tetrahydro-5H-pyrimido[4,5-d]azepin-4-ylamino]-phenyl}-propan-2-ol] |  | 0.32 µM
FC(F)(F)c1ccc(Nc2nc(N3CCCCC3)nc3c2CCN(c2ncccc2C(F)(F)F)CC3)nc1Cl [Example 390, (6-Chloro-5-trifluoromethyl-pyridin-2-yl)-[2-piperidin-1-yl-7-(3-trifluoromethyl-pyridin-2-yl)-6,7,8,9-tetrahydro-5H-pyrimido[4,5-d]azepin-4-yl]-amine] |  | 0.09 µM
CC(C)(C(=O)O)c1ccc(Nc2nc(N3CCOCC3)nc3c2CCN(c2ncccc2C(F)(F)F)CC3)cc1 [Example 392, 2-Methyl-2-{4-[2-morpholin-4-yl-7-(3-trifluoromethyl-pyridin-2-yl)-6,7,8,9-tetrahydro-5H-pyrimido[4,5-d]azepin-4-ylamino]-phenyl}-propionic acid] |  | 1.54 µM
